From patent US20090285820A1, “Methods of Treating Degenerative Disorders With Rac 1B Inhibitor” (priority 2006, published 2009)

What was measured:
Type in all cases: cell-based
[1] = system: rac1 mRNA in SH-SY5Y cells; assay: Effect of oxidative stress on rac1 levels, PCR of rac1; details: 24 hours
Method: (§1) To test whether ROS production may affect the rac1/rac1b ratio SH-SY5Y cells were exposed to various ROS-inducing agents at the indicated concentrations for 24 hours and cell viability was determined using a LDH assay (Cytotox96, Promega).
(§2) SH-SY5Y cells were plated in 24 well plates (ATGC, France) at the initial density of 3*10^5 cells/well. After 24 hours, cells were treated with various ROS-inducing agents at the indicated concentrations. After 24 h incubation, a LDH assay was conducted to reveal cell viability and cells were processed for RNA extraction using Trizol.
(§3) To test the effect of ROS producing agents TBH and 6-OHDA on mRNA levels of rac1 and rac1b, SH-SY5Y cells were exposed to various ROS-inducing agents at the indicated concentrations for 24 hours and rac1 and rac1b were either coamplified using primers nm—006908_F1 and nm—006908_R1, or rac1b was specifically amplified in a nested PCR approach that sequentially used primers nm—006908_F1 and nm—006908_R1, then primers nm—006908_F2 and nm—006908_R1. GAPDH was amplified as control.

[2] = system: rac1b mRNA in SH-SY5Y cells; assay: Induction of rac1b splicing by oxidative stress, nested PCR of rac1b; details: 24 hours, subtoxic concentrations
Method: as §1, §2, §3

[3] = system: rac1b mRNA in rat primary cortical cells; assay: Induction of rac1b splicing by Abeta, nested PCR of rac1b mRNA; details: rat cortical cells exposed to Abeta for 24 hours; observed at 11.25 and 22.5 μM; two independent cultures
Method: Rat primary cortical cell cultures are sensitive to Abeta toxicity, the neurotoxicity of which involves different mechanisms such as calcium homeostasis dysregulation, accumulation of ROS, secondary excitotoxicity and caspase activation (Zhang et al, J Neurochem 1996, 67 (4) 1595-1606). Abeta peptide is dissolved in 100% HFIP (1,1,1,3,3,3-hexafluoro-2-propanol), then dryed out and resuspended in 100% DMSO and rediluted in DMEM/F12 without phenol red. The solution maturates by incubation at 37° C. during 72 h and Aβ oligomers are then added on 7 days cultures for 24 h. After 24 h incubation, cells were processed for RNA extraction using Trizol. A nested PCR approach was used for the amplification rac1b using the following primers: nm—006908_F1: […] (SEQ ID NO 9), nm—006908_R1: TGGCATTGAGTGCGAAGGC (SEQ ID NO 10), nm—006908_F2: AAAGACAAGCCGATTGCCG (SEQ ID NO 11). Rac1 was amplified following the first PCR of the protocol described below using primers nm—006908_F1 and nm—006908_R1. In these conditions, rac1b was not detected on gel due to its low quantity after single PCR amplification and was easily detected using primers nm—006908_F2 and nm—006908_R1 in the nested PCR. […]

Molecule | mRNA levels of rac1 [1] | mRNA levels of rac1b [2] | mRNA levels of rac1b [3]
NCCc1cc(O)c(O)cc1O [6-OHDA, 6-hydroxydopamine] | rac1 levels are not altered | dose dependent accumulation of rac1b | 
CC(C)(C)OO [TBH, t-butyl hydroperoxide] | rac1 levels are not altered | dose dependent accumulation of rac1b | 
Abeta: fragment of Abeta42 containing the aminoacids 25 to 35 that reproduces the toxic mechanisms of Aβ42 (GSNKGAIIGLM; Amyloid-beta protein 42; UniProt P05067 696-706, looked up, fragment) |  |  | dose dependent accumulation of rac1b mRNA
